Test system: C57BL/6J mice exposed in utero to VPA (and SAL control offspring)
Assay: Three chamber test in the valproic acid (VPA) model of autism
Type: in vivo
From the text: Furthermore, rodents prenatally exposed to this drug display behavioral phenotypes characteristics of the human autism condition. This model might better represent the many cases of idiopathic autism which are of environmental/epigenetic origins than do transgenic models carrying mutations in single autism-associated genes. The VPA model is an environmentally triggered model with strong construct and clinical validity. The VPA-induced rodent model is an art-recognized and well-established and widely utilized animal model to test putative efficacy of pharmacological agents on behavioral and social elements in the autistic spectrum for humans.
C57BL/6J mice were obtained at 7-8 weeks of age and were mated, with pregnancy confirmed by the presence of a vaginal plug on embryonic day 0 (E0). On E12.5, pregnant females received a single intraperitoneal injection of sodium salt of valproic acid (VPA, 500 mg/kg) dissolved in saline (SAL). Control females received an equal volume of SAL only. Day of birth was recorded as PO (postnatal day zero). The offspring were weaned on P21 (postnatal day 21) and the male offspring were housed in groups of 4-5. Experiments were carried out on male offspring. The mice were housed in a temperature- and humidity-controlled environment with ad libitum access to food and water. Animals were maintained on a 12 hr light/dark schedule, with lights on at 8 A.M.
The male offspring of VPA-treated mice were divided into 4 groups (n=8-9 per group): VPA-Vehicle)+50 μg of ZnSO4, VPA-ticagrelor (0.3 mg/kg)+[…] of ZnSO4, VPA-ticagrelor (10 mg/kg)+50 μg of ZnSO4 and VPA-ticagrelor (30 mg/kg)+50 μg of ZnSO4. The male offspring of SAL-treated mice were divided into 2 groups (n=10 per group): SAL-Vehicle and SAL-ticagrelor (30 mg/kg)+50 μg of ZnSO4. From the sixth week to eight week of age, the mice received three once-weekly injections of either saline (50 μl/g ip) or ticagrelor (i.p.). Twenty-four hours after the last injection, the three chamber test was performed.
The three-chamber test assesses cognition in the form of general sociability and interest in social novelty in a rodent model of CNS disorders. This test measures the sociability, the propensity to spend time with another mouse, as compared to time spent alone in an identical but empty chamber.
The apparatus was an acrylic box (length: 62 cm, width: 41 cm, height: 30.5 cm) divided into three chambers. A 5 cm×5 cm opening was made on the partitions so that mice could freely explore the three chambers. Mouse was first placed into the centre chamber of the apparatus and allowed 5 min for habituation. Following the completion of the acclimatization period the test mouse was removed to a holding cage, and the bedding material was redistributed. Then a novel mouse enclosed in a tiny cage was placed in one lateral chamber (social area) and an empty tiny cage was placed in the other lateral chamber as a novel object (non-social area). Mouse was first placed into the centre chamber and allowed to freely explore the chambers for 10 min and the time spent in each of the three areas (social, centre, and non-social areas) was recorded.
Statistical Analyses: Statistical analyses for the data were performed using one-way or two-way RM ANOVA (SigmaStat 3.1). Post-hoc comparisons were performed with the Tukey HSD method. If data were not normally distributed, Kruskal-Wallis one way ANOVA on ranks followed by the Dunn's method was used. All data were represented as mean±SEM. Significant level was set at p<0.05.

[1] = SAL (control) offspring, ticagrelor 30 mg/kg i.p. + 50 μg ZnSO4, vs SAL-Vehicle, p>0.05

CCCSc1nc(N[C@@H]2C[C@H]2c2ccc(F)c(F)c2)c2nnn([C@@H]3C[C@H](OCCO)[C@@H](O)[C@H]3O)c2n1 [ticagrelor, (1S,2S,3R,5S)-3-[7-[[(1R,2S)-2-(3,4-difluorophenyl)cyclopropyl]amino]-5-(propylthio)-3H-1,2,3-triazolo[4,5-d]pyrimidin-3-yl]-5-(2-hydroxyethoxy)-1,2-cyclopentanediol]
time spent in non-social area [1]: no significant difference
time spent in social area [1]: no significant difference
time spent in social area (VPA offspring, ticagrelor 10 mg/kg i.p. + 50 μg ZnSO4, three once-weekly injections, test 24 h after the last, vs VPA-Vehicle, p<0.01): significant increase
time spent in non-social area (VPA offspring, ticagrelor 10 mg/kg i.p. + 50 μg ZnSO4, vs VPA-Vehicle, p<0.01): significant decrease
time spent in social area (VPA offspring, ticagrelor 30 mg/kg i.p. + 50 μg ZnSO4, three once-weekly injections, test 24 h after the last, vs VPA-Vehicle, p<0.001): significant increase
time spent in non-social area (VPA offspring, ticagrelor 30 mg/kg i.p. + 50 μg ZnSO4, vs VPA-Vehicle, p<0.01): significant decrease
time spent in centre area (VPA offspring, ticagrelor 30 mg/kg i.p. + 50 μg ZnSO4, vs VPA-Vehicle, p<0.05): significant decrease
deficit in sociability (three once-weekly administrations of ticagrelor and zinc salt, C57BL/6J mice exposed in utero to VPA): attenuated the deficit in sociability

From patent publication US11878016B2, “Methods and products for treating subjects with autism spectrum disorders” (NEURIM PHARMACEUTICALS (1991) LTD., priority 2021, dated 2024)
